Measured values: patent publication US20230285365A1, “USE OF A DHODH INHIBITOR COMPOUND IN COMBINATION CANCER THERAPY” (Servier Pharmaceuticals LLC, priority 2020, published 2023)

Test system: mouse lymphoma models (DLBCL, MCL, Burkitt lymphoma, Hodgkin lymphoma, undifferentiated lymphoma)
Assay: Growth inhibition study in tumor-bearing mice, various mouse lymphoma models
Type: in vivo
Details: doses as in treatment table (Compound 1 100 mg/kg BID, rituximab 20 mg/kg BIW, CHOP), FIGS. 1-3
Text: See e.g., FIGS. 1-3, which show complete regression of certain diffuse large B-cell lymphoma (DLBCL), mantle cell lymphoma (MCL), Burkitt lymphoma, Hodgkin lymphoma, and undifferentiated lymphoma mouse models following treatment with Compound 1 and R-CHOP.
Growth Inhibition Study of Compound 1 with R-CHOP in Tumor-Bearing Mice.
Mice were implanted subcutaneously with 5×10^6 to 2×10^7 cells as required for each model. Tumor volumes were monitored twice a week until tumors reach approximately 150 mm^3. Once tumor burden was at this level, mice were randomized and treated with the following.
At the study end, tumor tissue, and plasma were collected 1 hr. post final dose of Compound 1. Treatment was well tolerated. FIGS. 1-3 show the percent change in tumor volume for the mouse models treated. […] A similar result was observed across the multiple subsets of lymphoma tested.

## rituximab
  tumor response (percent change in tumor volume): tumor growth continued
